What was measured:
pUC18 DNA = test: PCR with additional nucleotides, template and primers (FIG. 3); assay type: biochemical; conditions: labeled nucleotide replaces the normal dNTP; 0.2 mM MnCl2; −21 Forward and −28 Reverse primers
Experimental: (§1) Polymerase chain reaction (PCR) mixtures (20 μl) contained 20 mM Tris-HCL (pH 8.75), 10 mM KCL, 10 mM (NH4)2SO4, 2 mM MgSO4, 1 mg/ml bovine serum albumin and 0.1% (v/v) Triton X-100. The final nucleotide concentrations were 20 μM each, and 2.5 units of the DNA polymerase were used for each reaction. The initial template DNA (1–5 ng) was either pUC18 or pUCp53 (Amersham Biosciences). The initial amount of primer was 2 μmol each, and 2.5 units of the indicated DNA polymerase was used. Reactions were carried out for 15 thermal cycles of 90° C., 30 sec.; 55° C., 60 sec.; and 72° C., 300 sec. Most PCR reactions also included MnCl2 at a final concentration of 0.08–0.2 mM. Reaction products were loaded onto 1.6% agarose gels. The gels were stained with SYBR Gold (Molecular Probes) according to the manufacturers' instructions and scanned at 532 nm using a Typhoon fluorescence scanner (Amersham Biosciences). Gel size markers were a 100 bp ladder (Amersham Biosciences).
(§2) For both figures, the amplification reaction loaded in lane 1 was performed with normal dNTPs and without MnCl2. For the lanes marked 2, the dTTP was replaced by dT4P-DDAO and the reactions contained 0.2 mM MnCl2. For the lanes marked 3, the dGTP was replaced by dG4P-DDAO, and for the lanes marked 4, the dGTP was replaced by dG4P-MeCoumarin again with 0.2 mM MnCl2.

pUCp53 DNA = test: PCR with additional nucleotides (FIG. 2); assay type: biochemical; conditions: labeled nucleotide replaces the normal dNTP; 0.2 mM MnCl2; primers P53SNP22C-51F and P53SNP22G131R
Experimental: as §1, §2

Tba exo-DNA polymerase = test: PCR amplification of pUCp53 target with terminal-phosphate labeled nucleotide, gel and fluorescence detection; assay type: biochemical, Thermococcus barosii
Experimental: as §1
(§3) The DNA polymerases used for these experiments included Taq DNA polymerase, Thermo Sequenase DNA polymerase (Amersham Biosciences), Tba exo-DNA polymerase (from Thermococcus barosii, U.S. Pat. No. 5,602,011 with D141A and E143A amino acid substitutions U.S. Pat. No. 5,882,904), Pfu DNA polymerase (Strategene), KOD XL DNA polymerase (Novagen) and Deep Vent DNA polymerase (New England BioLabs).
For this experiment, either Taq DNA polymerase (lanes 1–3, 12), Thermo Sequenase (Amersham Biosciences) DNA polymerase (lanes 7–9, 11) or Tba exo-DNA polymerase (lanes 4–6, 10) were used. The MnCl2 concentration was 0 mM for the reactions resolved in lanes 1, 4, 7 and 10–12; 0.2 mM in lanes 2, 5, and 8; 0.4 mM in lanes 3, 6 and 9. For all samples, the template DNA was pUCp53 and the primers were P53SNP22C-51F and P53SNP22G131R. […]
(§4) Then the fluorescence was determined using a FarCYte fluorescence plate reader (Amersham Biosciences) using 650 nm excitation and 670 nm emission. […] The reaction product of Tba exo-DNA polymerase gave a reading of 31,000 fluorescence units.

Taq DNA polymerase = Taq DNA polymerase (Thermus aquaticus, UniProt P19821); test: as above; assay type: biochemical; conditions: lane 2 of FIG. 1, 0.2 mM MnCl2
Taq DNA polymerase, sequence (P19821 whole entry): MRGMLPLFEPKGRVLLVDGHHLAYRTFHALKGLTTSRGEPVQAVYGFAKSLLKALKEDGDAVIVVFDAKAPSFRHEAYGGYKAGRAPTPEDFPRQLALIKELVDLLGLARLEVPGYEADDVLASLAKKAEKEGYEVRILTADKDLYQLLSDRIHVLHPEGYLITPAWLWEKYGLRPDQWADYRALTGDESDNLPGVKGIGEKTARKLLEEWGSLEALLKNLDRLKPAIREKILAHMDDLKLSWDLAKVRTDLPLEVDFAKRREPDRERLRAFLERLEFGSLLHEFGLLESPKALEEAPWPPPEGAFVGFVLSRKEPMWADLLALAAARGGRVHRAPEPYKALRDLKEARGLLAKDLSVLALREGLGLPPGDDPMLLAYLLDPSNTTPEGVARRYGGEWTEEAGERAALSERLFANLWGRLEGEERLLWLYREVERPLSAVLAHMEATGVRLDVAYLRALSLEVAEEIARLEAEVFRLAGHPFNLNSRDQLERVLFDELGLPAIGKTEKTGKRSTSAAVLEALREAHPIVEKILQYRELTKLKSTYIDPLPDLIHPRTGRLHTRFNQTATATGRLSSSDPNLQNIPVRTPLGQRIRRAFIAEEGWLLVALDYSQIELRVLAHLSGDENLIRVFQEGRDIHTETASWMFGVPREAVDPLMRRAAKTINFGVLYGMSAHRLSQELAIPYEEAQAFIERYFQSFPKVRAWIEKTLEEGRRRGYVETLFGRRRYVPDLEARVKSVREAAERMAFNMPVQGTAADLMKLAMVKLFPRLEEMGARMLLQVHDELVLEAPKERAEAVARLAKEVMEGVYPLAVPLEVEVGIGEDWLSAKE
Experimental: Polymerase chain reaction (PCR) mixtures (20 μl) contained 20 mM Tris-HCL (pH 8.75), 10 mM KCL, 10 mM (NH4)2SO4, 2 mM MgSO4, 1 mg/ml bovine serum albumin and 0.1% (v/v) Triton X-100. The final nucleotide concentrations were 20 μM each, and 2.5 units of the DNA polymerase were used for each reaction. The initial template DNA (1–5 ng) was either pUC18 or pUCp53 (Amersham Biosciences). The initial amount of primer was 2 μmol each, and 2.5 units of the indicated DNA polymerase was used. Reactions were carried out for 15 thermal cycles of 90° C., 30 sec.; 55° C., 60 sec.; and 72° C., 300 sec. Most PCR reactions also included MnCl2 at a final concentration of 0.08–0.2 mM. Reaction products were loaded onto 1.6% agarose gels. The gels were stained with SYBR Gold (Molecular Probes) according to the manufacturers' instructions and scanned at 532 nm using a Typhoon fluorescence scanner (Amersham Biosciences). Gel size markers were a 100 bp ladder (Amersham Biosciences). […]
as §4

Phi29 DNA polymerase = target: T1, Phi29 DNA polymerase (Bacillus phage phi29, UniProt P03680); test: Rolling circle amplification of salmon sperm chromosomal DNA with terminal-phosphate labeled/blocked nucleoside polyphosphates; assay type: biochemical; conditions: 50 μm dT4P-DDAO with dA4P-Me, dG4P-Me, dC4P-Me, BAP, 30° C.
T1 sequence (P03680 1-575): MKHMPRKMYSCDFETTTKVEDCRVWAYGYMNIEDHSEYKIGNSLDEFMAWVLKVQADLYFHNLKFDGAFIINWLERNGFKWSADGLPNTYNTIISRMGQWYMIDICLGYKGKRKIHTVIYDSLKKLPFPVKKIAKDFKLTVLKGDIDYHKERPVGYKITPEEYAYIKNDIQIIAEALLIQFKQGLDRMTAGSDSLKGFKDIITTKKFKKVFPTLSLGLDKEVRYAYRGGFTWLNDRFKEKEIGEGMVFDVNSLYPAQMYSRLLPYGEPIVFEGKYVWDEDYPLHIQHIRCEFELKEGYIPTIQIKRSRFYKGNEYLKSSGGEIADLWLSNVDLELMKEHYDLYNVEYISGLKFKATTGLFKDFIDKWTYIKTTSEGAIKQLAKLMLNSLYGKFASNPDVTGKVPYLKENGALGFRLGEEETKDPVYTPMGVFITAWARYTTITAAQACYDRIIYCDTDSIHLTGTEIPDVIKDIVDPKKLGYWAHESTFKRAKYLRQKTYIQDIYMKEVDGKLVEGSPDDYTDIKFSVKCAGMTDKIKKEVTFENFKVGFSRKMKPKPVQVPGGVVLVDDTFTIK
Experimental: Varying amounts of denatured salmon sperm chromosomal DNA was taken in 25 mM Tris: borate buffer, pH 8.0, containing 5 mM ammonium sulfate, 75 mM NaCl, 5 mM MgCl2, 1 mM MnSO4, 0.01% Tween-20, 400 ng Phi29 DNA polymerase, 40 μm nuclease resistant random hexamers, 0.03 units of BAP and 50 μm each of dA4P-Me, dG4P-Me, dC4P-Me and dT4P-DDAO. Reactions were incubated at 30° C. in a Tecan fluorescent plate reader and were read every five minutes at excitation and emission wavelengths optimized for DDAO. Raw fluorescence counts are plotted as a function of time.

Pfu DNA polymerase = target: T2, Pfu DNA polymerase (Pyrococcus furiosus, UniProt P61875); test: PCR amplification of pUCp53 target with terminal-phosphate labeled nucleotide; assay type: biochemical; conditions: same conditions as FIG. 1, DDAO-dT4P replaced dTTP
T2 construct: purchased Strategene (so in the source); Stratagene)
T2 sequence (P61875 1-775): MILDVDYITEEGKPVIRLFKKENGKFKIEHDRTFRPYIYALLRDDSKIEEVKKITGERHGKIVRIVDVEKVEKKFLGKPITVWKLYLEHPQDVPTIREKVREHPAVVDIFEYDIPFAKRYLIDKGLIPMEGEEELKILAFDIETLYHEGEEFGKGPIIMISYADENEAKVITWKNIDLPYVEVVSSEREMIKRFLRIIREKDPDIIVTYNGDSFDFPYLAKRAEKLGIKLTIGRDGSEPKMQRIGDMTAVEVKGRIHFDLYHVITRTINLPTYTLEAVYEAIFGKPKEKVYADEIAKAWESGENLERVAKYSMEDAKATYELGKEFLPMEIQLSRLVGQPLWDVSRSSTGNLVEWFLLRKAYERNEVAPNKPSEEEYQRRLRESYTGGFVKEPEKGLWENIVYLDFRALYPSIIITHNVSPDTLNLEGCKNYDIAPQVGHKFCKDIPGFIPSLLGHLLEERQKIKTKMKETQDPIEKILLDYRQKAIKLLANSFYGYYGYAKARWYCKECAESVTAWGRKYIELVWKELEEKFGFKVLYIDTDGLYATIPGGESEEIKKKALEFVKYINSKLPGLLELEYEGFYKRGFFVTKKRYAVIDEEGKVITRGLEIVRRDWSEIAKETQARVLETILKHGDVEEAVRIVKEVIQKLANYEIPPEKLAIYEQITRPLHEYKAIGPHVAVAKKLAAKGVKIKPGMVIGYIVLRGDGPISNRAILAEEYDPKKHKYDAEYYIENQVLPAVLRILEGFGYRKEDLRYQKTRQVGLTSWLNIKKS
Experimental: as §1
as §3, with “BioLabs). […]” for “BioLabs).”

KOD XL DNA polymerase = test: as above; assay type: biochemical; conditions: same conditions as FIG. 1, DDAO-dT4P replaced dTTP
Experimental: as §1
as §3, with “BioLabs). […]” for “BioLabs).”

[1] = Non-enzymatic hydrolysis of terminal-phosphate labeled nucleoside polyphosphate on thermal cycling, effect of glycerol; assay type: physicochemical; conditions: 5% glycerol; high temperatures
Experimental: Seventy μl samples containing 50 mM Hepes, pH 8.0, 5 mM MgCl2, 0.5 mM MnCl2, 0.01% Tween-20, 1 μm ddT4P-EtFl, 100 nM primer/template, 0.0036 units/μl SAP with or without 5% glycerol were cycled as follows: 95° C., 30 sec and 50° C., 3 min, repeat 10 times. Amount of free dye formed was checked in a fluorimeter.

T. ba polymerase = test: PCR amplification with terminal-phosphate labeled nucleoside polyphosphates in the presence of stabilizing additives (FIG. 6); assay type: biochemical, Thermococcus barosii; conditions: 10–25 mM salt; dA4P-Me, dT4P-Me, dC4P-Me, dG4P-FlEt; 0.25 mM MnCl2; M13 DNA; 35 cycles
Experimental: Polymerase chain reaction (PCR) mixtures (20 μl) contained 25 mM Hepes (pH 8.1), 10 mM KCl, 2 mM MgSO4, 0.25 mM MnCl2, 1 mg/ml bovine serum albumin, 0.01% (v/v) Tween-20 and 10–25 mM salt as shown in FIG. 6. Each sample also contained 20 μm each of dA4P-Me, dT4P-Me, dC4P-Me, 200 μm dG4P-FlEt, 0.006 units/μl BAP, 2 units of T. ba polymerase, 0.1 μm −40 M13 forward primer, 0.1 μm −28 M13 reverse primer and 0.2 ng M13 DNA. In addition to the terminal-phosphate labeled nucleotide, terminal methyl-blocked dNTP's were used instead of normal dNTP's to prevent degradation by BAP (phosphatase). Latter is required for signal generation from dye-polyphosphate after the nucleotide is incorporated into DNA by polymerase. Reactions were carried out for 35 thermal cycles of 90° C., 30 sec.; 55° C., 30 sec.; and 65° C., 300 sec. Reaction products were loaded onto 1.6% agarose gels. The gels were stained with SYBR Gold (Molecular Probes) according to the manufacturers' instructions and scanned at 532 nm using a Typhoon fluorescence scanner (Amersham Biosciences). Gel size markers were a 100 bp ladder (Amersham Biosciences).

[2] = Non-enzymatic hydrolysis of dT4P-DDAO in the presence of MnCl2, effect of other salts (FIG. 5); conditions: 10 or 25 mM salt; 0.5 mM MnCl2; 25 mM Hepes pH 8.1; 95° C. for 60 minutes
Experimental: Twenty μl of 25 mM Hepes, pH 8.1, containing 0.5 mM MnCl2, 1 μm dT4P-DDAO and 10 or 25 mM inorganic or organic salt (see FIG. 5) was heated at 95° C. for 60 minutes. 4 μl of each sample was treated with BAP as described above and read on Tecan ultra plate reader. An unheated sample with MnCl2 (water lane) and a heated sample without Hepes and MnCl2 were used as controls. Fluorescence counts were converted into % degradation as described above.

CC1(C)C2=C(Cl)C(=O)C(Cl)=CC2=Nc2ccc(OP(=O)(O)OP(=O)(O)OP(=O)(O)OP(=O)(O)OC[C@H]3OC(n4cnc5c(=O)[nH]c(N)nc54)CC3O)cc21 (stereo partly shown) [dG4P-DDAO, δ-9H(1,3-dichloro-9,9-dimethylacridin-2-one-7-yl)-deoxyguanosine-5′-tetraphosphate]
PCR amplification product on gel (pUC18 DNA): successfully produced product of the expected size
PCR amplification product on gel (pUCp53 DNA): successfully produced product of the expected size

Cc1cc(=O)oc2cc(OP(=O)(O)OP(=O)(O)OP(=O)(O)OP(=O)(O)OC[C@H]3O[C@@H](n4cnc5c(=O)[nH]c(N)nc54)C[C@@H]3O)ccc12 [dG4P-MeCoumarin, 2′-Deoxyguanosine-5′-(δ-7-(4-methylumbelliferone)) tetraphosphate]
PCR amplification product on gel (pUC18 DNA): successfully produced product of the expected size
PCR amplification product on gel (pUCp53 DNA): successfully produced product of the expected size

Cc1cn([C@H]2CC(O)[C@@H](COP(=O)(O)OP(=O)(O)OP(=O)(O)OP(=O)(O)Oc3ccc4c(c3)C(C)(C)C3=C(Cl)C(=O)C(Cl)=CC3=N4)O2)c(=O)[nH]c1=O (stereo partly shown) [dT4P-DDAO, δ-9H(1,3-dichloro-9,9-dimethylacridin-2-one-7-yl)-deoxythymidine-5′-tetraphosphate]
increase of PCR yield in the presence of MnCl2 (Tba exo-DNA polymerase; 0.2–0.4 mM MnCl2 versus 0 mM, DDAO-dT4P replaced dTTP): at least 5 fold
PCR product on agarose gel (Tba exo-DNA polymerase; DDAO-dT4P replaced dTTP, pUCp53 template, 15 thermal cycles, FIG. 1): significant amounts of PCR product were made
fluorescence reading of PCR reaction product after shrimp alkaline phosphatase (Tba exo-DNA polymerase; lane 5 of FIG. 1, 0.2 mM MnCl2, 650 nm excitation, 670 nm emission): 31,000 fluorescence units
PCR product (Taq DNA polymerase; DDAO-dT4P replaced dTTP): little or no detectable PCR product
fluorescence reading of PCR reaction product after shrimp alkaline phosphatase (Taq DNA polymerase; 650 nm excitation, 670 nm emission): 5500 fluorescence units
PCR amplification product on gel (pUC18 DNA): successfully produced product of the expected size
rate of product formation (slope 20–40 minutes) versus amount of input DNA (Phi29 DNA polymerase; FIG. 10): linear correlation
fluorescence signal (Phi29 DNA polymerase; absence of input DNA, FIG. 9): no signal is produced
PCR amplification product on gel (pUCp53 DNA): successfully produced product of the expected size
PCR product (Pfu DNA polymerase): PCR product is made
PCR product (KOD XL DNA polymerase): PCR product is made

OCC(O)CO [glycerol]
effect of additive on degradation of ddT4P-EtFl caused by manganese [1]: reduces the amount of degradation caused by manganese

O=C(O)CP(=O)(O)O [phosphonoacetate]
PCR product formation in the presence of the additive (T. ba polymerase): No product formed
stabilization of dT4P-DDAO (% degradation) [2]: stabilize the nucleotide

CCCS(=O)(=O)O [propane sulfonate]
stabilization of dT4P-DDAO (% degradation) [2]: minimal

[Na+].[Na+].[O]=[Mo](=[O])([O-])[O-] [sodium molybdate]
PCR product formation in the presence of the additive (T. ba polymerase): PCR product was separated

[Na+].[Na+].[O]=[W](=[O])([O-])[O-] [sodium tungstate]
PCR product formation in the presence of the additive (T. ba polymerase): PCR product was separated

sodium vanadate
PCR product formation in the presence of the additive (T. ba polymerase): No product formed
